Assays:
Type in all cases: ADME, Microsome
Conditions in all cases: time 55 min
[1] = Clearance in human microsomes assessed per mg protein at 1 uM preincubated for 10 mins followed by NADPH addition and measured after 1 to 45 mins by LC-MS/MS analysis
[2] = Clearance in mouse microsomes assessed per mg protein at 1 uM preincubated for 10 mins followed by NADPH addition and measured after 1 to 45 mins by LC-MS/MS analysis
[3] = Clearance in rat microsomes assessed per mg protein at 1 uM preincubated for 10 mins followed by NADPH addition and measured after 1 to 45 mins by LC-MS/MS analysis

microsomal CLint at 1 µM [1] [µL/min/mg]	microsomal CLint at 1 µM [2] [µL/min/mg]	microsomal CLint at 1 µM [3] [µL/min/mg]	SMILES
10	12	32	COc1nc(NS(=O)(=O)c2c[nH]c(-c3ncccc3F)c2)nc(OC)c1OCCF
10	10	50	COc1nc(NS(=O)(=O)c2c[nH]c(-c3nccs3)c2)nc(OC)c1OC(F)F
10	21	81	COc1nc(NS(=O)(=O)c2c[nH]c(-c3ccccc3)c2)nc(OC)c1OCC(F)F

From ChEMBL document CHEMBL6103664, “Novel Pyrimidinyl Sulfonamide Derivatives as GPR17 Modulators” (ACS Med Chem Lett, 2025)
